Test results taken from US20250019371A1, “SMALL-MOLECULAR INHIBITORS FOR THE BETA-CATENIN/ B-CELL LYMPHOMA 9 PROTEIN-PROTEIN INTERACTION” (H. LEE MOFFITT CANCER CENTER AND RESEARCH INSTITUTE, INC., priority 2021, published 2025).
Read-outs that look alike come from different tables or passages of the source.

Key:
β-catenin/BCL9 PPI = target: T1, β-catenin/BCL9 PPI (Homo sapiens, UniProt P35222); assay: AlphaScreen competitive inhibition assay of β-catenin/BCL9 PPI; format: binding
T1 construct: Full-length β-catenin (residues 1-781); host or cells: E. coli BL21 DE3
T1 sequence (P35222 1-781): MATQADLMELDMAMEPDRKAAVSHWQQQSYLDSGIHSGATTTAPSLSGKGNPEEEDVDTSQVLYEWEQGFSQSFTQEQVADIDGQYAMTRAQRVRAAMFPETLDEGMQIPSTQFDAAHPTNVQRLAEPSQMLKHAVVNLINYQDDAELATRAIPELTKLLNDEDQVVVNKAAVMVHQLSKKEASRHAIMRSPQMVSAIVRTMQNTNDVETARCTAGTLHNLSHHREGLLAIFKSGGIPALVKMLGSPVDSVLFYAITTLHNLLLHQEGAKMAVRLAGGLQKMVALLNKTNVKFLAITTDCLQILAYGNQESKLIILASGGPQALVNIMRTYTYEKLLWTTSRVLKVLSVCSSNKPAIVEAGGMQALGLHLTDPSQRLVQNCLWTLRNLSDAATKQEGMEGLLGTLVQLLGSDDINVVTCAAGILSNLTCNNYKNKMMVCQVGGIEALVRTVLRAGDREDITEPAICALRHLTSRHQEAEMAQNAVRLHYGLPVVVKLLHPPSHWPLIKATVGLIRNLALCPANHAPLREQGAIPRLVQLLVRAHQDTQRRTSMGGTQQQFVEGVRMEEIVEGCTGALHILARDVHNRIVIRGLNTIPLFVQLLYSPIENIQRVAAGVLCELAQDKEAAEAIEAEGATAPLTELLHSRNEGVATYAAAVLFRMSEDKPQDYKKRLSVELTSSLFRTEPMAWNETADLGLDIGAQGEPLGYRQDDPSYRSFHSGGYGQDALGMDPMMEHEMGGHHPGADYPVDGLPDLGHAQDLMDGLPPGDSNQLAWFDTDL
Description: AlphaScreen Assays of β-Catenin and BCL9 Interaction. Experiments were performed in white opaque 384-well plates from PerkinElmer (Waltham, MA), and the samples were read on a Biotek Synergy 2 plate reader (Winooski, VT) with excitation at 680 nm and emission at 570 nm. The standard AlphaScreen protocol was used with a sensitivity setting of 200. All dilutions were made in 1x assay buffer containing 25 mM Hepes (pH 7.4), 100 mM NaCl, 0.01% Triton X-100 and 0.1% BSA to minimize nonspecific interactions.
For the β-catenin/BCL9 assay, 5 nM biotinylated BCL9, and 50 nM His6-tagged 8-catenin were incubated in assay buffer for 30 min. Different concentrations of the tested inhibitor were added and incubated in 20 μL assay buffer for another 1 h. All of the assay plates were covered and gently mixed on an orbital shaker. Donor and acceptor beads were then added to the plates to a final concentration of 10 μg/mL in 25 μL assay buffer. The mixture was incubated for 1 h before detection. The IC50 value was determined by nonlinear least-square analysis of GraphPad Prism 8.0. […] All of the experiments were performed in triplicate and carried out in the presence of 1% DMSO for small-molecule inhibitors. Each compound was assayed at least by three independent experiments. The results were expressed as mean±standard deviation.

MDA-MB-231 = assay: MTS cell viability assay, MDA-MB-231; format: cell-based; conditions: Homo sapiens, 72 h, Wnt/β-catenin hyperactive, mean ± SD (n = 3)
Description: (§1) MTS Cell Growth Inhibition Experiments. Colorectal cancer cells (SW480 and HCT116) and triple negative breast cancer cells (MDA-MB-231 and MDA-MB-468) were seeded in 96-well plates at 5×10^3 cells/well in DMEM with 10% FCS, maintained overnight at 37° C., and incubated with the tested compounds at various concentrations. Human mammary epithelial cell MCF10A were seeded in 96-well plates at 1×10^4 cells/well in MEGM (CC-3150, Lonza) with 100 ng/mL cholera toxin, maintained overnight at 37° C., and incubated with the tested compounds at various concentrations. Cell viability was monitored after 72 h using a freshly prepared mixture of 1 part phenazine methosulfate (PMS, Sigma) solution (0.92 mg/mL) and 19 parts 3-(4,5-dimethylthiazol-2-yl)-5-(3-carboxymethoxyphenyl)-2-(4-sulfophenyl)-2H-tetrazolium (MTS, Promega) solution (2 mg/mL). Cells were incubated in 10 μL of this solution at 37° C. for 3 h, and A490 was measured. […] Experiments were performed in triplicate.

[1] = tested on: Wnt/β-catenin hyperactive cancer cells; assay: MTS cell viability assays, cell panel; format: cell-based; conditions: SW480, HCT116, MDA-MB-231, MDA-MB-468; read-out: IC50s for viability of Wnt/β-catenin hyperactive cancer cells
Description: as §1

[2] = tested on: Axin2, cyclin D1 and LEF1 mRNA; assay: qPCR of Wnt target genes in Wnt 3a-activated MDA-MB-231 cells; format: cell-based, human; conditions: 24 h, HPRT spared
Description: Quantitative Real Time PCR analysis. SW480 cells at 1×10^6 cells/mL were treated with inhibitors at different concentrations for 24 h. MDA-MB-231 cells at 1×10^6 cells/mL were treated with 100 ng/mL recombinant Wnt 3a (rmW3aL-010, Time BioScience) for 30 min, then the inhibitors at different concentration were added and incubated for 24 h. Total RNAs were extracted with TRIzol (15596026, Life Technologies), and the cDNA was synthesized with the superscript III first-strand kit (18080-051, Invitrogen). qPCR experiments were performed using the iQTM SYBR green supermix kit (170-8880, BIO-RAD) on an CFX96 Real Time System (BIO-RAD). The threshold cycle (CT) values were normalized to that of internal reference GAPDH. Experiments were performed in triplicate. The primer pairs are shown below

SW480 = assay: MTS cell viability assay, SW480; format: cell-based; conditions: Homo sapiens, 72 h, Wnt/β-catenin hyperactive, mean ± SD (n = 3)
Description: as §1

With `CC(C)(Oc1cccc(N2CCC[C@H](C(=O)N(Cc3ccc(-c4cccs4)cc3)C3CC3)C2)c1)C(=O)NS(=O)(=O)c1ccc(C#N)cc1` [Compound 30, (S)-((4-Cyanophenyl)sulfonyl) (2-(3-(3-(cyclopropyl(4-(thiophen-2-yl)benzyl)carbamoyl)piperidin-1-yl)phenoxy)-2-methylpropanoyl)amide] the Ki (β-catenin/BCL9 PPI; AlphaScreen competitive inhibition assay, read-out: Ki for disruption of the β-catenin/BCL9 PPI) was 3.6 µM, the “AlphaScreen inhibitory activity in words” value (β-catenin/BCL9 PPI; SAR comparison) was “slightly superior to R-isomer” and the IC50 (β-catenin/BCL9 PPI; Table 2, AlphaScreen, inhibitors 27-30 (R- and S-isomers), preliminary) was ≤ 5 µM. For the same molecule, the Ki (β-catenin/BCL9 PPI; Table 2, AlphaScreen, inhibitors 27-30 (R- and S-isomers), preliminary, read-out: Ki) was ≤ 5 µM, the IC50 (MDA-MB-231) was 14.3 ± 0.57 µM and the IC50 [1] was 14 to 30 µM. For the same molecule, the “transcription of Wnt target genes Axin2, cyclin D1, LEF1 (qPCR)” value [2] was “dose-dependently inhibited transcription of these Wnt target genes” and the IC50 (SW480) was 16.3 ± 2.04 µM.
